As usually defined, the IC50 is the point on the concentration scale where inhibition reaches its midpoint. Low values mean greater potency in that assay, high ones weaker potency in that assay. By LogP is commonly meant the decadic logarithm of the partition coefficient of the neutral form, usually between octanol and water. Read a high LogP as higher lipophilicity.

The test system of data set [1] is patient-derived Meso84 cell line (sarcomatoid MPM). In words: MTT cytotoxicity assay, 72 h, Meso84. The data set is classed as cell-based, human. Conditions: exposure time 72 h. Background: Tetrazolium assays rely on reduction of a dye to a coloured formazan, in cell work by metabolically active cells.
Data set [2] concerns human nonmalignant mesothelioma cell line Met5A. The experiment in a line: MTT cytotoxicity assay, 72 h, Met5A. The data set is classed as cell-based. Particulars: exposure time 72 h.
Description: Cell lines and culture conditions
Mouse malignant mesothelioma cancer cell line AB12, human nonmalignant mesothelioma cancer cell line Met5A (mesothelial cells), mouse macrophage cell line J774 and human monocytic cell line THP-1 were obtained from American Type Culture Collection (ATCC) (Rockville, MD, USA). Human malignant mesothelioma cell lines VMC23 (epithelial), Meso82 (sarcomatous), Meso92 (biphasic), were kindly provided by Prof. Walter Berger (Medical University of Vienna). All cells except for J774 were cultured in RPMI and J774 cells were cultured in DMEM. Both types of media were supplemented with 10% FBS and 1% penicillin-streptomycin (10,000 U/mL). Cells were grown in tissue culture flasks (75 cm2 and 25 cm2, SPL Life Sciences Co., Ltd., Korea). All cell lines were grown at 37 °C in a humidified atmosphere of 95% air and 5% CO 2 and passaged when they reached 80–90% confluency. All Au stock solutions were prepared in 1% DMSO in the respected medium, ensuring that cell viability was not inhibited. The Au concentration in the stock solutions was confirmed through inductively coupled plasma optical emission spectrometry. The stock solution of pemetrexed (10 mM) was prepared in Milli -Q water.
Inhibition of c ell viability assay
(§1) The cytotoxicity of compounds was determined using an MTT colorimetric test. The cells were harvested from culture flasks by trypsinization and seeded into Cellstar 96 -well microculture plates (Greiner Bio -One) at the seeding density of 6000 cells per well (6 × 10^4 cells/mL). After
(§2) the cells were allowed to resume exponential growth for 16 h, they were exposed to drugs at
(§3) different concentrations in media for 72 h. The drugs were diluted in a complete medium at the desired concentration added to each well (100 μL) and serially diluted in other wells. After exposure for 72 h, the media was replaced with MTT in media (5 mg/mL, 100 μL/well) and
For data set [3], the system named is patient-derived Meso92 cell line (biphasic MPM). The experiment in a line: MTT cytotoxicity assay, 72 h, Meso92. The data set is classed as cell-based, human. Particulars: exposure time 72 h.
The test system of data set [4] is human malignant mesothelioma cell line JU77. The experiment in a line: MTT cytotoxicity assay, 72 h, JU77. In kind it is cell-based. Conditions: exposure time 72 h.
Description: (§4) Human malignant mesothelioma cancer cell lines JU77 and LO68 were obtained from Cell Bank Australia (Children's Medical Research Institute, Westmead, Australia). Mouse malignant mesothelioma cancer cell line AB12, human nonmalignant mesothelioma cancer cell line Met5A (mesothelial cells), mouse macrophage cell line J774 and human monocytic cell line THP-1 were obtained from American Type Culture Collection (ATCC) (Rockville, MD, USA). Human malignant mesothelioma cell lines VMC23 (epithelial), Meso82 (sarcomatous), Meso92 (biphasic), were kindly provided by Prof. Walter Berger (Medical University of Vienna). All cells except for J774 were cultured in RPMI and J774 cells were cultured in DMEM. Both types of media were supplemented with 10% FBS and 1% penicillin-streptomycin (10,000 U/mL). Cells were grown in tissue culture flasks (75 cm2 and 25 cm2, SPL Life Sciences Co., Ltd., Korea). All cell lines were grown at 37 °C in a humidified atmosphere of 95% air and 5% CO 2 and passaged when they reached 80–90% confluency. All Au stock solutions were prepared in 1% DMSO in the respected medium, ensuring that cell viability was not inhibited.
as §1, §2, §3
For data set [5], the system named is AB12 cells phagocytosed by J774 macrophages. In words: Phagocytosis assay, flow cytometry. Particulars: AB12 treated 100 min at 5 × IC50 (72 h), 16 h with J774 macrophages. The data set is classed as cell-based, mouse. As to the method: page 21: incubated for an additional 50 min. Subsequently, the medium was aspirated, and the purple formazan crystals formed in viable cells were dissolved in DMSO (100 μL/well). Optical densities were measured at 570 nm using a BioTek Synergy H1 microplate and MultiskanTM SkyHigh plate readers. The quantity of viable cells was expressed in terms of treated/control (T/C) values in comparison to untreated control cells, and 50% inhibitory concentrations (IC 50) were calculated from concentration-effect curves by interpolation. An evaluation was based on means from at least three independent experiments, each comprising three […] concentration level. For macrophage analyses, the acute monocytic leukemia -derived THP-1 cell line (ATCC) was used as a model. 1 × 104 THP-1 cells were seeded per well in 96-well plates in RPMI-1640 with 10% FCS and treated for 24 h with 75 nM phorbol 12-myristate 13-acetate (PMA, Sigma- Aldrich) to induce M0 macrophage differentiation. After the differentiation period, PMA was replaced by fresh culture medium to recover for 2h. Afterwards increasing concentrations of 1G, 5A, 5B and 5G were added for a 72-h continuous drug exposure assay. In parallel, the […] were allowed to attach for 24 h. Gold compounds were added to the cells as described for the THP-1 model above. After the incubation period of 72 h, cell viability was determined by an MTT-based assay (EU4U, Biomedica) following the instructions of the manufacturer. DMSO had not impact on the cell viability at the concentrations used. Flow cytometry experiments Phagocytosis assay […] with RPMI, centrifuged (300 × g, 5 min) and labelled with CellTracker Red CMTPX Dye (0.72 μM for 5 × 10^5 cells) at 37°C for 30 minutes in 1 ml of serum -free RPMI. Following S21 page 22: centrifugation of the cells (300 × g, 5 min), 5 ml of fresh RPMI was introduced, and the cells were seeded at a density of 5 x 10^5 cells per well into Cellstar 6-well plates (Greiner Bio-One) (1 ml per well). J774 macrophages (70-80% confluence in a T75 flask) were detached by scraping, centrifuged (300 × g, 5 min). The medium was substituted with 1 ml of DMEM containing CellTracker Green CMFDA (1 μM) and the J774 macrophages were stained at 37°C for 30 minutes. Following centrifugation of the J774 macrophages (300 × g, 5 min), 5 ml of fresh DMEM was introduced, and the macrophages were seeded into a 100 cm2 petri dish (SPL Life Sciences, Korea). After 24 h, the media in AB12 cells was replaced with 1 ml of fresh […] for 100 minutes. After removing the drug-containing media, the cells were trypsinized (0.5 ml), neutralized with 1 ml of RPMI, centrifuged (300 × g, 5 min) and counted. From each sample, […] cells into 6-well plates. AB12 cells and J774 macrophages were co-incubated for 16 h at 37°C and 5% CO2, detached by scraping, centrifuged (300 × g, 5 min), and the pellets were resuspended in PBS for immediate analysis using a CytoFLEX Flow Cytometer (Beckman Coulter, USA). The percentage of phagocytosis was determined by calculating the number of double-positive macrophages (Q2) over the total number of macrophages (Q2 + Q3). […] Annexin V/PI assay AB12 cells were seeded into Cellstar 6-well plates (Greiner Bio-One) at a density of 5 × 10^5 cells/well (1 ml per well). […] The medium was removed and cells were washed with PBS (2 × 1 mL). Afterwards the cells were […] S22

In data set [6] the test system is murine malignant mesothelioma cell line AB12. The experiment in a line: MTT cytotoxicity assay, 72 h, AB12. Conditions: exposure time 72 h. In kind it is cell-based, mouse.
Data set [7] relates to human malignant mesothelioma cell line LO68. In words: MTT cytotoxicity assay, 72 h, LO68. The data set is classed as cell-based. Conditions: exposure time 72 h.
The test system of data set [8] is patient-derived VMC23 cell line (epithelioid MPM). In words: MTT cytotoxicity assay, 72 h, VMC23. Conditions: exposure time 72 h. In kind it is cell-based, human.
Description: as §4, §1, §2, §3
The conditions of data set [9]: determined from retention time using RP-HPLC.
In data set [10] the test system is M0-differentiated THP-1 cells. In words: MTT-based viability assay on M0-differentiated THP-1 cells, 72 h. In kind it is cell-based, human. Particulars: 72-h exposure, compared with AB12 cells. As to the method: incubated for an additional 50 min. Subsequently, the medium was aspirated, and the purple formazan crystals formed in viable cells were dissolved in DMSO (100 μL/well). Optical densities were measured at 570 nm using a BioTek Synergy H1 microplate and MultiskanTM SkyHigh plate readers. The quantity of viable cells was expressed in terms of treated/control (T/C) values in comparison to untreated control cells, and 50% inhibitory concentrations (IC 50) were calculated from concentration-effect curves by interpolation. An evaluation was based on means from at least three independent experiments, each comprising three replicat es per […]
For macrophage analyses, the acute monocytic leukemia -derived THP-1 cell line (ATCC) was used as a model. 1 × 104 THP-1 cells were seeded per well in 96-well plates in RPMI-1640 with 10% FCS and treated for 24 h with 75 nM phorbol 12-myristate 13-acetate (PMA, Sigma-Aldrich) to induce M0 macrophage differentiation. After the differentiation period, PMA was replaced by fresh culture medium to recover for 2h. Afterwards increasing concentrations of 1G, 5A, 5B and 5G were added for a 72-h continuous drug exposure assay. In parallel, the murine mesothelioma cell line AB12 was seeded into 96 -well plates at 2.5 × 10^3 cells/well and were allowed to attach for 24 h. Gold compounds were added to the cells as described for the THP-1 model above. After the incubation period of 72 h, cell viability was determined by an MTT-based assay (EU4U, Biomedica) following the instructions of the manufacturer. DMSO had not impact on the cell viability at the concentrations used. […]

The subject of data set [11] is AB12 cells. In words: Annexin V/PI assay (necrosis), flow cytometry. In kind it is cell-based, mouse. Conditions: AB12, 5 × IC50 (72 h), short exposure. The protocol: centrifugation of the cells (300 × g, 5 min), 5 ml of fresh RPMI was introduced, and the cells were seeded at a density of 5 x 10^5 cells per well into Cellstar 6-well plates (Greiner Bio-One) (1 ml per well). J774 macrophages (70-80% confluence in a T75 flask) were detached by scraping, centrifuged (300 × g, 5 min). The medium was substituted with 1 ml of DMEM containing CellTracker Green CMFDA (1 μM) and the J774 macrophages were stained at 37°C for 30 minutes. Following centrifugation of the J774 macrophages (300 × g, 5 min), 5 ml of fresh DMEM was introduced, and the macrophages were seeded into a 100 cm2 petri dish (SPL Life Sciences, Korea). After 24 h, the media in AB12 cells was replaced with 1 ml of fresh RPMI containing compounds of interest at equipotent concentration of 5 × IC50 and incubated for 100 minutes. After removing the drug-containing media, the cells were trypsinized (0.5 ml), neutralized with 1 ml of RPMI, centrifuged (300 × g, 5 min) and counted. From each sample, 2 × 10^5 AB12 cells were seeded into Cellstar 6-well plates (Greiner Bio-One) (1 ml per well).
2 × 10^5 J774 macrophages were detached from a petri dish by scraping and added to AB12 cells into 6-well plates. AB12 cells and J774 macrophages were co-incubated for 16 h at 37°C and 5% CO2, detached by scraping, centrifuged (300 × g, 5 min), and the pellets were resuspended in PBS for immediate analysis using a CytoFLEX Flow Cytometer (Beckman Coulter, USA). The percentage of phagocytosis was determined by calculating the number of double-positive macrophages (Q2) over the total number of macrophages (Q2 + Q3). Dot plots […]
analysis of the flow cytometry data. […]
concentrations for 100 min at 37 °C. […] Cell death was evaluated by flow cytometry using a CytoFLEX Flow Cytometer equipped with a 488 nm laser and a 638 nm laser (Beckman Coulter, Brea, CA, USA). The cells were excited by the 488 nm laser, and fluorescence emissions were detected at 525/40 nm for FITC (Annexin V) and at 610/20 nm for ECD (PI).
The percentage of necrosis was determined by calculating the sum of cells in Q1 and Q2. […]
On the technique in general: Flow cytometry measures light scatter and fluorescence of single cells or particles in a stream.

The test system of data set [12] is AB12 cells in BALB/c mice. In words: In vivo vaccination model. More on the design: species or system mouse. Particulars: within the first 30 days after vaccination, n = 8.
Description: Initially, AB12 cells underwent pretreatment with varying concentrations of Au(III) complexes, and the induced cell death and release of desired ICD biomarkers were monitored over time. Upon reaching a cell death rate of 65%–75%, BALB/c mice (n = 8) were subcutaneously injected in the left flank with a vaccine containing 3 × 10^5 of live/dying/dead cells, while the vehicle group received injections of PBS. Seven days postvaccine administration, the immunized mice were rechallenged by inoculating the same number of live AB12 cells (without any prior treatment) into the right flanks (Figure 5A). The progression of tumor growth on the right flanks was monitored using a caliper.
AB12 cells were seeded into Cellstar 24-well plates (Greiner Bio-One) at a density of 1.8 × 104
cells/ml (1 ml per well) and allowed to grow exponentially for 16 hours. Subsequently, the
medium was replaced with 1 ml of fresh medium containing compounds of interest at
predetermined concentrations (with a minimum of 4 wells per treatment condition). These
concentrations were selected to induce 65-75% cell death.
Subsequently, the culture
medium was aspirated, and the cells were washed twice with 1 mL of PBS. The cell
concentration was adjusted to 3 × 10^5 cells (including dead/dying/live cells) per 100 μL of PBS,
and the ratio of dead/live cells was assessed using the Invitrogen Countess 3 cell counter. In
the subsequent experiment, BALB/c mice (8 mice per group) were subcutaneously injected
with 0.1 mL of AB12 cells (3 × 10^5 cells/mL, including dead/dying/live cells) or the
corresponding vehicle (PBS) on the left flank. Tumor growth was monitored daily.
After 7 days, the mice were subcutaneously injected with
0.1 mL of AB12 cells (3 × 10^5 cells/mL, live cells) on the right flank. Regular measurements
of body weights and tumor sizes were taken. Mice that developed palpable tumors were
euthanized for further analysis.

`COC1c2cccc[c]2[Au-]2([S]C(=[N+](Cc3ccccc3)Cc3ccccc3)[S]2)[n+]2ccccc21.F[P-](F)(F)(F)(F)F` (racemic) [4D]: the concentration for half-maximal inhibition (IC50) in [1] worked out at 2900 ± 700 nM; in data set [2] it was 3200 ± 300 nM; in data set [3], 4100 ± 900 nM; in data set [4] it was 1700 ± 200 nM; in data set [6] it was 2300 ± 100 nM; in data set [7] it was 2300 ± 600 nM. Also, in data set [8], inhibition was half-maximal at 4200 ± 700 nM (IC50). Besides, in data set [5], the phagocytosis rate is listed as 35% ± 9%.
With `COC1c2cccc[c]2[Au-]2([S]C(=[N+]3CCCCC3)[S]2)[n+]2ccccc21.F[P-](F)(F)(F)(F)F` (racemic) [4H], the IC50 stood at 330 ± 80 nM in [1]; 680 ± 140 nM in data set [2]; 1700 ± 300 nM in data set [3]; 2400 ± 200 nM in [4]; 220 ± 30 nM in data set [6]; 2500 ± 100 nM in data set [7]. The compound further came in with an IC50 in data set [8] of 2800 ± 300 nM. Besides, in [9], the LogP turned out to be 2.33.
For the compound `F[P-](F)(F)(F)(F)F.c1cc[c]2c(c1)-c1cccc[n+]1[Au-]21[S]C(=[N+]2CCCCCC2)[S]1` (stereo not shown) [1G], the IC50 in data set [1] came to 500 ± 40 nM; in data set [2], 430 ± 90 nM; in data set [3], 1400 ± 200 nM; in [4] it was 220 ± 30 nM; in data set [6], 1100 ± 100 nM; in [7] it was 500 ± 120 nM. This compound also returned an IC50 in data set [8] of 720 ± 140 nM. For the same compound, in data set [10], the “sensitivity of THP-1-derived macrophages” value is reported as “highly sensitive”.
As for `F[P-](F)(F)(F)(F)F.c1ccc(C[N+](Cc2ccccc2)=C2[S][Au-]3([S]2)[c]2ccccc2Cc2cccc[n+]23)cc1` (stereo not shown) [2D], the IC50 in data set [1] was determined as 3000 ± 300 nM; in [2] it was 2500 ± 400 nM; in [3] it was 5400 ± 1300 nM; in data set [4], 2300 ± 700 nM; in [6], 3900 ± 500 nM; in data set [7], 2200 ± 400 nM. The IC50 in data set [8] was determined as 2400 ± 500 nM. Moreover, in [11], the “necrotic cell death (in words)” value is reported as “did not result in significant necrotic cell death”. The “phagocytosis / ICD response (in words)” value in data set [5] is reported as “high levels of phagocytosis”.
Regarding `F[P-](F)(F)(F)(F)F.c1cc[c]2c(c1)Cc1cccc[n+]1[Au-]21[S]C(=[N+]2CCCCC2)[S]1` (stereo not shown) [2H], the IC50 in data set [1] was found to be 300 ± 70 nM; in data set [2], 2200 ± 500 nM; in [3] it was 5200 ± 1200 nM; in [4], 2000 ± 500 nM; in [6], 310 ± 80 nM; in data set [7] it was 1900 ± 300 nM. This compound also showed an IC50 in [8] of 8400 ± 1300 nM. Besides, the LogP in [9] is recorded as 2.56.
As to `CC[N+](CC)=C1[S][Au-]2([S]1)[c]1ccccc1Nc1cccc[n+]12.F[P-](F)(F)(F)(F)F` (stereo not shown) [5B], the IC50 in data set [1] amounted to 63 ± 19 nM; in data set [2] it was 180 ± 50 nM; in data set [3] it was 210 ± 60 nM; in data set [4], 190 ± 50 nM; in [6], 53 ± 2 nM; in [7] it was 240 ± 20 nM. Moreover, the IC50 in data set [8] is 300 ± 90 nM. The “sensitivity of THP-1-derived macrophages” value in data set [10] was “highly sensitive”.
Consider `CCCC[N+](CCCC)=C1[S][Au-]2([S]1)[c]1ccccc1Nc1cccc[n+]12.F[P-](F)(F)(F)(F)F` (stereo not shown) [5C], for which the IC50 was found to be 180 ± 30 nM in [1]; 65 ± 15 nM in data set [2]; 410 ± 60 nM in data set [3]; 86 ± 22 nM in data set [4]; 130 ± 30 nM in data set [6]; 360 ± 70 nM in data set [7]. In [8], it took 640 ± 140 nM to reach half-maximal inhibition (IC50). Also, the phagocytosis rate in [5] is 35% ± 9%. Also, in [12], the “mice that developed tumors after vaccination” value is recorded as “≈ 50%”.

(Values after article PMC11887451, “Leveraging Immunogenic Cell Death to Enhance the Immune Response against Malignant Pleural Mesothelioma Tumors” (Journal of the American Chemical Society, 2025).)
